The record followed here is PubChem BioAssay (NCI).

The structures appear in SMILES notation. Where “and” joins values, the source holds several entries; their conditions need not be identical. Equal values may be shown once.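 Exposure lasted 48 hours, with cells grown in 96-well plates and compounds tested at five concentrations. The concentration for 50% growth inhibition is given as GI50. The concentration for full growth arrest is given as TGI.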 Some results are limits rather than exact numbers.

Among the test systems are HCC-2998 colon; HCT-116 colon; KM20L2 colon; LXFL 529 NSCLC; SK-MEL-2 melanoma; SK-MEL-28 melanoma; RXF 393 renal; SK-MEL-5 melanoma; HS 578T breast; PC-3 prostate.
Common to all, as to assay: NCI anticancer screen, dose series, 48 h

On to `N#Cc1nc(Nc2cccc3ccccc23)sc1N`, for which the TGI in the test with HCC-2998 colon is 41.2 µM; with HCT-116 colon, above 100 µM; in the test on KM20L2 colon it was above 100 µM; in the test with LXFL 529 NSCLC, above 100 µM; in the test on SK-MEL-2 melanoma it was 79.2 µM; with SK-MEL-28 melanoma, above 100 µM.
`CCOc1ccccc1C=C1c2ccccc2C(=O)c2ccccc21`: the TGI was 21.9 µM in the test with HCC-2998 colon; 29.5 µM in the test with HCT-116 colon; above 100 µM in the test on LXFL 529 NSCLC; 5.96 µM in the test with RXF 393 renal; 11.9 µM in the test with SK-MEL-2 melanoma; above 100 µM in the test on SK-MEL-28 melanoma. In the test on SK-MEL-5 melanoma, this compound came in with a TGI of 20.8 µM.
As for `CC(O)CCC(=O)c1ccoc1` (centres undefined), the TGI in the test on HCC-2998 colon was above 10000 µM; in the test on HCT-116 colon it was above 8750 µM; with HS 578T breast it was above 10000 µM; in the test on KM20L2 colon it was above 10000 µM; in the test with PC-3 prostate, above 10000 µM; with RXF 393 renal, above 8310 µM. Moreover, the TGI was above 8110 µM in the test on SK-MEL-2 melanoma, above 8380 µM in the test with SK-MEL-28 melanoma and 8030 µM in the test with SK-MEL-5 melanoma.
As for `CC1(C)COC(c2cccnc2/C=N/O)=N1`, the TGI with HCT-116 colon, in the test with KM20L2 colon, in the test with LXFL 529 NSCLC, in the test on RXF 393 renal, in the test on SK-MEL-2 melanoma and in the test with SK-MEL-28 melanoma was above 100 µM throughout. For the same compound, the TGI with SK-MEL-5 melanoma was above 100 µM.
Turning to `O=C(CCn1[nH]c(=O)c(Cl)c(Cl)c1=O)NO`, the TGI in the test with HCC-2998 colon, in the test with KM20L2 colon, in the test with LXFL 529 NSCLC, in the test with RXF 393 renal, in the test with SK-MEL-2 melanoma and in the test with SK-MEL-28 melanoma was above 100 µM throughout. This compound had a TGI in the test with SK-MEL-5 melanoma above 100 µM.
With `COc1ccc(C(=O)C(c2ccc(OC)cc2)C2(O)C(=O)Nc3ccc([N+](=O)[O-])cc32)cc1` (centres undefined), the TGI with HCT-116 colon, in the test on KM20L2 colon, in the test with LXFL 529 NSCLC, with RXF 393 renal, in the test on SK-MEL-2 melanoma and in the test on SK-MEL-28 melanoma was above 100 µM throughout.
On to `Cc1cc(CC(O)c2ccc(Cl)c(Cl)c2)nc(=O)[nH]1` (centres undefined), for which the TGI was 54.2 µM with HCT-116 colon; above 100 µM in the test with KM20L2 colon; 59.2 µM in the test on LXFL 529 NSCLC; above 100 µM with SK-MEL-2 melanoma; above 100 µM in the test on SK-MEL-28 melanoma; above 100 µM in the test with SK-MEL-5 melanoma.
Consider `[N-]=[N+]=NC12CC3C4CC5CC3C(C1)C(C5)C4C2`, for which the TGI in the test on HCC-2998 colon, in the test on HCT-116 colon, in the test with LXFL 529 NSCLC, in the test with SK-MEL-2 melanoma, with SK-MEL-28 melanoma and in the test with SK-MEL-5 melanoma was above 100 µM each time.
`C=C1CC[C@@H]2[C@](C)(COC(C)=O)[C@H](OC(C)=O)CC[C@@]2(C)[C@@H]1CC(Sc1ccccc1)C1=CCOC1=O` (some centres undefined): the GI50 is 2.1 µM in the test on HCC-2998 colon; 0.854 µM in the test on HCT-116 colon; 4.89 µM with HS 578T breast; 1.84 µM with PC-3 prostate; 1.62 µM in the test with RXF 393 renal; 2.25 µM with SK-MEL-2 melanoma. Also, the GI50 in the test with SK-MEL-28 melanoma is 1.62 µM; in the test on SK-MEL-5 melanoma, 1.42 µM. Moreover, the TGI in the test on HCC-2998 colon came out at 4.07 µM; in the test with HCT-116 colon it was 2.18 µM; with HS 578T breast, 63.3 µM; in the test with PC-3 prostate, 10.1 µM; in the test with RXF 393 renal it was 3.12 µM; with SK-MEL-2 melanoma it was 4.59 µM. The TGI in the test on SK-MEL-28 melanoma is 3.29 µM; with SK-MEL-5 melanoma it was 2.82 µM.
Consider `O=C(Cc1ccc(/C=C/C(=O)c2ncc[nH]2)cc1)Nc1cc(F)c(F)c(F)c1`, for which the GI50 was 3.57 µM in the test on HCC-2998 colon; 2.04 µM in the test with HCT-116 colon; 7.3 µM with HS 578T breast; 3.8 µM with PC-3 prostate; 3.06 µM with RXF 393 renal; 5.15 µM in the test with SK-MEL-2 melanoma. Further, the GI50 is 4.15 µM in the test on SK-MEL-28 melanoma and 4.18 µM with SK-MEL-5 melanoma. The TGI in the test with HCC-2998 colon is 7.03 µM; with HCT-116 colon, 5.38 µM; in the test with HS 578T breast it was above 25 µM; with PC-3 prostate it was 9.12 µM; with RXF 393 renal, 6.56 µM; in the test on SK-MEL-2 melanoma, 15.7 µM. Besides, the figures for the TGI with SK-MEL-28 melanoma and in the test on SK-MEL-5 melanoma were 8.09 µM and 8.19 µM, respectively.
For `CCN(CC)CCCC(CNc1ccnc2cc(Cl)ccc12)c1ccc(Cl)cc1` (centres undefined), the GI50 in the test on HCC-2998 colon is 1.42 µM and 0.834 µM; with HCT-116 colon, 1.54 µM and 0.925 µM; in the test with HS 578T breast, 1.76 µM and 1.97 µM; with PC-3 prostate, 3.51 µM and 2.45 µM; in the test on RXF 393 renal, 1.4 µM and 1.03 µM; with SK-MEL-2 melanoma, 2.1 µM and 1.59 µM. The GI50 was 1.66 µM and 0.537 µM in the test with SK-MEL-28 melanoma; 1.13 µM with SK-MEL-5 melanoma. Further, the TGI is 2.96 µM and 2.21 µM in the test with HCC-2998 colon; 6.12 µM and 2.36 µM in the test on HCT-116 colon; 3.82 µM and 4.46 µM with HS 578T breast; 13.2 µM and 10.2 µM with PC-3 prostate; 3.01 µM and 2.51 µM in the test on RXF 393 renal; 4.07 µM and 3.09 µM with SK-MEL-2 melanoma. Besides, the TGI is 3.3 µM and 1.09 µM in the test with SK-MEL-28 melanoma; 2.4 µM in the test on SK-MEL-5 melanoma.
`O=C(/C=C/c1ccccc1O)c1ccccc1O`: the TGI in the test with HCC-2998 colon, in the test on HCT-116 colon, in the test with KM20L2 colon, in the test on RXF 393 renal, with SK-MEL-2 melanoma and in the test with SK-MEL-28 melanoma was above 100 µM each time. Further, the TGI in the test with SK-MEL-5 melanoma is above 100 µM.
Turning to `S=C(Nc1ccccc1)N(/N=C/C=C/c1ccccc1)c1nnc(-c2ccccc2)c(-c2ccccc2)n1`, the TGI in the test on HCC-2998 colon, with KM20L2 colon, in the test on RXF 393 renal, in the test on SK-MEL-2 melanoma, in the test on SK-MEL-28 melanoma and in the test with SK-MEL-5 melanoma was above 100 µM in each case.
Turning to `Cc1ccc(NC(=O)C(=O)C(C(=O)c2ccc3ccccc3c2)C2OC(=O)c3ccccc32)cc1C` (centres undefined), the TGI in the test with HCC-2998 colon was 18.9 µM; in the test with HCT-116 colon it was 25.5 µM; with KM20L2 colon, above 100 µM; in the test on LXFL 529 NSCLC it was 22 µM; in the test with SK-MEL-2 melanoma, 36.3 µM; in the test on SK-MEL-28 melanoma it was 26.9 µM. Moreover, the TGI in the test with SK-MEL-5 melanoma worked out at 30 µM.
In the case of `COc1cc(C#CC(=O)OC/C=C/c2ccc3c(c2)OCO3)cc(OC)c1OC`, the TGI is 49.2 µM in the test on HCC-2998 colon; above 100 µM in the test with HCT-116 colon; 51 µM in the test on HS 578T breast; 72.3 µM in the test on PC-3 prostate; 30.2 µM in the test on RXF 393 renal; 25.4 µM in the test on SK-MEL-2 melanoma. Further, the TGI with SK-MEL-28 melanoma is above 100 µM; with SK-MEL-5 melanoma, 32.8 µM.
In the case of `Cc1ccc(Cc2c(=O)[nH]nc3ccccc23)cc1`, the TGI in the test with HCC-2998 colon, in the test on HCT-116 colon, with KM20L2 colon, in the test on SK-MEL-2 melanoma, with SK-MEL-28 melanoma and with SK-MEL-5 melanoma was above 100 µM in each case.
On to `O=C(CNc1ccc(Cl)cc1)Nc1ccc(-c2nc3ccccc3s2)cc1`, for which the GI50 with HCC-2998 colon is 2.12 µM; in the test on HCT-116 colon, 1.74 µM; in the test on HS 578T breast, 7.87 µM; in the test on PC-3 prostate, 1.85 µM; in the test on RXF 393 renal, 4.95 µM; in the test with SK-MEL-2 melanoma it was 8.96 µM. Moreover, the GI50 in the test with SK-MEL-28 melanoma was 5.67 µM; with SK-MEL-5 melanoma it was 2 µM. The TGI in the test with HCC-2998 colon was found to be 4.24 µM; in the test with HCT-116 colon, 3.76 µM; in the test on HS 578T breast, 47.6 µM; in the test on PC-3 prostate, 4.41 µM; in the test on RXF 393 renal it was 10.3 µM; in the test with SK-MEL-2 melanoma, 30.8 µM. The TGI in the test with SK-MEL-28 melanoma was 11.6 µM; in the test with SK-MEL-5 melanoma, 5.42 µM.
Turning to `COc1cccc(/C=C/c2cc(OC)c(OC)c(OC)c2)c1`, the TGI is above 100 µM in the test on HCC-2998 colon; above 100 µM in the test on HCT-116 colon; 87.7 µM with KM20L2 colon; above 100 µM with LXFL 529 NSCLC; above 100 µM with SK-MEL-2 melanoma; above 100 µM in the test on SK-MEL-28 melanoma. In the test on SK-MEL-5 melanoma, this compound yielded a TGI above 100 µM.
As to `CCOC(=O)CCCn1c(SC)nc2[nH]cc(-c3ccccc3)c2c1=O`, the GI50 was above 100 µM in the test on HCC-2998 colon; 14.1 µM with HCT-116 colon; 23.8 µM with HS 578T breast; 13.8 µM with PC-3 prostate; 18.2 µM in the test with RXF 393 renal; 21.6 µM with SK-MEL-2 melanoma. Besides, the GI50 with SK-MEL-28 melanoma is 17.6 µM; with SK-MEL-5 melanoma it was 12.9 µM. Also, the TGI with HCC-2998 colon was above 100 µM; with HCT-116 colon, 34 µM; with HS 578T breast, 77.4 µM; with PC-3 prostate, 35.8 µM; in the test on RXF 393 renal, 49 µM; in the test with SK-MEL-2 melanoma, 45.8 µM. Further, the TGI in the test on SK-MEL-28 melanoma was determined as 37.1 µM; in the test with SK-MEL-5 melanoma it was 25.7 µM.
`C=C1C(=O)OC2CCN3CC=C(COC(=O)C(C)(O)C4(CO4)C1C)C23` (centres undefined): the TGI with HCC-2998 colon, in the test with HCT-116 colon, in the test with HS 578T breast, in the test on PC-3 prostate, in the test on RXF 393 renal and in the test on SK-MEL-2 melanoma was above 100 µM throughout. For the same compound, the TGI in the test with SK-MEL-28 melanoma and in the test with SK-MEL-5 melanoma was above 100 µM each time.
For `CCCCCCCCCCCCCC1=NC(C)(C)CN1C(C)C`, the GI50 was 1.41 µM in the test with HCC-2998 colon; 1.38 µM in the test on HCT-116 colon; 1.79 µM with HS 578T breast; 1.34 µM with PC-3 prostate; 1.62 µM in the test with RXF 393 renal; 1.88 µM in the test on SK-MEL-2 melanoma. In addition, the results for the GI50 in the test on SK-MEL-28 melanoma and with SK-MEL-5 melanoma were 1.74 µM and 1.67 µM, respectively. Further, the TGI was 2.74 µM in the test with HCC-2998 colon; 2.68 µM in the test on HCT-116 colon; 3.86 µM with HS 578T breast; 3.03 µM in the test on PC-3 prostate; 3.11 µM in the test on RXF 393 renal; 3.39 µM with SK-MEL-2 melanoma. In addition, the TGI is 3.11 µM with SK-MEL-28 melanoma and 3.03 µM with SK-MEL-5 melanoma.
